The assay concerns the target T1, human LXRβ (Homo sapiens, UniProt P55055).
T1 construct: expressed in transfected cells; host or cells: HEK293 cells (ATCC CRL-1573), transient transfection with pFA-hLXRβ/GAL4 and pUAS
T1 sequence (P55055 222-460 limits assumed): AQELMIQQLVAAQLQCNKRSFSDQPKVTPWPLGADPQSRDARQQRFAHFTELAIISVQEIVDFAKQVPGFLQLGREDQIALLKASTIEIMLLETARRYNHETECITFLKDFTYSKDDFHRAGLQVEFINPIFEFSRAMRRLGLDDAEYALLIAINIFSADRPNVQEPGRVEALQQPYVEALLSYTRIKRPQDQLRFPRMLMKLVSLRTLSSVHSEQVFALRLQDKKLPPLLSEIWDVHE
Kind of assay: Assay for Transcriptional Activity of LXRβ (GAL4-hLXRβ LBD luciferase reporter, transient transfection). The format is cell-based. Conditions: HEK293 cells transfected with pFA-hLXRβ/GAL4 and pUAS, 24 hours; for Emax: fold value in comparison with the control (DMSO-treated group); for EC50: increase of transcriptional activity of LXRβ, average of three independent tests. From the text:
The ligand-binding domain (LBD) cDNA of human LXRβ was inserted into an expression vector (pFA, Stratagene, USA) site adjacent to the yeast GAL4 transcription factor DNA binding domain to prepare an expression construct (pFA-hLXRβ/GAL4) (Willey et al., Genes & Development 9 1033-1045 (1995). The GAL4-responsive luciferase reporter plasmid, i.e., pUAS (Stratagene, USA), contained five copies of the GAL4 response element placed adjacent to the promoter and the luciferase reporter gene. The pFA-hLXRβ/GAL4 and pUAS were introduced into mammalian cells through transient transfection, followed by measuring the transcriptional activity of LXRβ.
HEK293 cells (human kidney cells, sATCC, CRL-1573) were incubated at a T-75 flask containing a DMEM supplemented with 10% fetal bovine serum (FBS) in a 37° C., until they reach about 70˜80% confluency. The culture media containing the cells was added to each well of a 96-well plate in a density of 5×10^4 cells per well. The pFA-hLXRβ/GAL4 and pUAS was transfected to the cells using a cationic-lipid transfection reagent (Lipofectamine™, Invitrogen), through culturing at 37° C. for 3 hours for transient transfection according to the manufacturer's instruction. The test compounds were dissolved in dimethyl sulfoxide (DMSO) in the concentrations of 50, 30, 10, 3, 1, 0.3, 0.1, 0.03, and 0.01 μM and then cells were treated with the prepared compound-containing solution (100 μl). The cells were incubated at 37° C. for 24 hours. After removal of the medium from each well, the lysis buffer (25 mM Tricine pH7.8, 2 mM DTT, 2 mM EGTA, 10% glycerol, 1% Triton X-100) was added with the amount of 20 μl per each well, and the plate was stirred at room temperature for 15 minutes. The luciferase reagent (prepared by adding 10 ml of the luciferase buffer (Promega) to 1 vial of the luciferase substrate (Promega)) was added to each well with the amount of 100 μl per well, followed by assaying with a luminometer according to the manufacturer's instruction.
The dose-response curve for calculating the EC50 values of the test compounds on the increase of transcriptional activity of LXRβ was prepared using the known LXR agonist (i.e., N-(2,2,2-trifluoro-ethyl)-N-[4-(2,2,2-trifluoro-1-hydroxy-1-trifluoromethyl-ethyl)-phenyl]-benzenesulfonamide) as a positive control and the vehicle (DMSO) as a negative control. The dose-response curve was produced from the 9-point curve having different concentrations at a 1/2 log unit. The EC50 value of a test compound, which is defined as a concentration for initiating the reaction corresponding to the half value between the Top value (i.e., the maximum value) and the Bottom value (baseline), was calculated according to the following equation. Y=Bottom+(Top-Bottom)/(1+10^((log EC50-X)*Hill Slope)).
In the above equation, Y is the observed value; X is the log concentration; Hill Slope is the slope of the curve; and Top and Bottom are the maximum value of test compound and the baseline value, respectively.
The following tables 1 and 2 show the EC50 values of the test compounds measured as in the above. In the tables 1 and 2, each EC50 value represents an average value obtained from three independent tests.
For orientation: A reporter such as luciferase makes a cellular process visible.

The source of these data is patent publication US9376420B2 (YUHAN CORPORATION, priority 2012, dated 2016).

In general, EC50 refers to the concentration needed to bring the measured effect to its halfway point. Low readings indicate an effect from little substance, high ones a need for much substance. `CS(=O)(=O)c1cccc(-c2cccc(N3N=C(C(F)(F)C(F)(F)F)CC3c3ccc(F)cc3F)c2)n1` (stereo not drawn) [Example 208, 5-(2,4-difluoro-phenyl)-1-[3-(6-methanesulfonyl-pyridin-2-yl)-phenyl]-3-pentafluoroethyl-4,5-dihydro-1H-pyrazole] gave an Emax of 22 fold and an EC50 of 6.07 µM.

In turn, `COc1ccc(-c2cccc(C3CC(C(F)(F)C(F)(F)F)=NN3c3ccc(F)cc3F)c2)cn1` (stereo not drawn) [Example 56, 1-(2,4-difluoro-phenyl)-5-[3-(6-methoxy-pyridin-3-yl)-phenyl]-3-pentafluoroethyl-4,5-dihydro-1H-pyrazole] came in with an Emax of 78 fold and an EC50 of 2.22 µM.

The molecule `OC(C1=NN(c2ccccc2Cl)C(c2ccc(-c3ccc(C(F)(F)F)nc3)cc2)C1)(C(F)(F)F)C(F)(F)F` (stereo not drawn) [Example 272, 1-(2-chloro-phenyl)-5-[4-(6-trifluoromethyl-pyridin-3-yl)-phenyl]-3-[di-(trifluoromethyl)-hydroxy-methyl]-4,5-dihydro-1H-pyrazole] displayed an Emax of 24 fold and an EC50 of 2.25 µM.

The molecule `CS(=O)(=O)N1CCN(c2cc(C3CC(C(F)(F)C(F)(F)F)=NN3c3ccc(F)cc3F)ccn2)CC1` (stereo not drawn) [Example 194, 1-(2,4-difluoro-phenyl)-5-[2-(4-methanesulfonyl-piperazin-1-yl)-pyridin-4-yl]-3-pentafluoroethyl-4,5-dihydro-1H-pyrazole] returned an Emax of 95 fold and an EC50 of 3.63 µM.

With `CC(C)S(=O)(=O)N1CCCN(c2ccc(C3CC(C(O)(C(F)(F)F)C(F)(F)F)=NN3c3ccccc3Cl)cc2)CC1` (stereo not drawn) [Example 324, 1-(2-chloro-phenyl)-5-[4-(4-isopropylsulfonyl-homopiperazin-1-yl)-phenyl]-3-[di-(trifluoromethyl)-hydroxy-methyl]-4,5-dihydro-1H-pyrazole], the Emax is 37 fold and the EC50 was 3.75 µM.

In turn, `OC(C1=NN(c2ccc(F)cc2F)C(c2ccc(-c3c(F)cc(-n4cnnn4)cc3F)cc2)C1)(C(F)(F)F)C(F)(F)F` (stereo not drawn) [Example 393, 1-(2,4-difluoro-phenyl)-5-{[2′,6′-difluoro-4′-(tetrazol-1-yl)-biphenyl]-4-yl}-3-[di-(trifluoromethyl)-hydroxy-methyl]-4,5-dihydro-1H-pyrazole] registered an Emax of 8 fold and an EC50 of 0.79 µM.

Molecule `Oc1cccc(-c2ccc(C3CC(C(O)(C(F)(F)F)C(F)(F)F)=NN3c3ccccc3Cl)cc2)c1` (stereo not drawn) [Example 252, 1-(2-chloro-phenyl)-5-(3′-hydroxy-biphenyl-4-yl)-3-[di-(trifluoromethyl)-hydroxy-methyl]-4,5-dihydro-1H-pyrazole] gave an Emax of 62 fold and an EC50 of 2.35 µM.

In turn, `O=S(=O)(C1CC1)N1CCN(c2cccc(C3CC(C(F)(F)C(F)(F)F)=NN3c3ccc(F)cc3F)c2)CC1` (stereo not drawn) [Example 97, 5-[3-(4-cyclopropanesulfonyl-piperazin-1-yl)-phenyl]-1-(2,4-difluoro-phenyl)-3-pentafluoroethyl-4,5-dihydro-1H-pyrazole] had an Emax of 69 fold and an EC50 of 3.09 µM.

In turn, `CS(=O)(=O)c1cccc(-c2cccc(N3N=C(C(F)(F)C(F)(F)F)CC3c3ccc(F)cc3F)c2)c1` (stereo not drawn) [Example 206, 5-(2,4-difluoro-phenyl)-1-[3′-(methylsulfonyl)-biphenyl-3-yl]-3-pentafluoroethyl-4,5-dihydro-1H-pyrazole] came in with an Emax of 87 fold and a 50% effective concentration (EC50) of 1.4 µM.

As to `OC(C1=NN(c2ccccc2Cl)C(c2ccc(-c3cnc(Cl)nc3)cc2)C1)(C(F)(F)F)C(F)(F)F` (stereo not drawn) [Example 281, 1-(2-chloro-phenyl)-5-[4-(2-chloro-pyrimidin-5-yl)-phenyl]-3-[di-(trifluoromethyl)-hydroxy-methyl]-4,5-dihydro-1H-pyrazole], the Emax is recorded as 66 fold and a half-maximal response (EC50) required 1.79 µM.

In turn, `CSc1ccc(-c2cccc(C3CC(C(F)(F)C(F)(F)F)=NN3c3ccccc3Cl)c2)cc1` (stereo not drawn) [Example 105, 1-(2-chloro-phenyl)-5-(4′-methylsulfanyl-biphenyl-3-yl)-3-pentafluoroethyl-4,5-dihydro-1H-pyrazole] registered an Emax of 55 fold and an EC50 of 6.31 µM.

Molecule `CS(=O)(=O)N1CC=C(c2cccc(C3CC(C(F)(F)C(F)(F)F)=NN3c3ccc(F)cc3F)c2)CC1` (stereo not drawn) [Example 62, 1-(2,4-difluoro-phenyl)-5-[3-(1-methanesulfonyl-1,2,3,6-tetrahydropyridin-4-yl)-phenyl]-3-pentafluoroethyl-4,5-dihydro-1H-pyrazole] showed an Emax of 59 fold and an EC50 of 1.16 µM.

In turn, `COc1ncc(-c2ccc(C3CC(C(O)(C(F)(F)F)C(F)(F)F)=NN3c3ccccc3Cl)cc2)cc1C=O` (stereo not drawn) [Example 274, 1-(2-chloro-phenyl)-5-[4-(5-formyl-6-methoxy-pyridin-3-yl)-phenyl]-3-[di-(trifluoromethyl)-hydroxy-methyl]-4,5-dihydro-1H-pyrazole] displayed an Emax of 55 fold and an EC50 of 1.01 µM.

`Cc1cc(F)ncc1-c1ccc(C2CC(C(O)(C(F)(F)F)C(F)(F)F)=NN2c2ccc(F)cc2F)cc1` (stereo not drawn) [Example 384, 1-(2,4-difluoro-phenyl)-5-[4-(6-fluoro-4-methyl-pyridin-3-yl)-phenyl]-3-[di-(trifluoromethyl)-hydroxy-methyl]-4,5-dihydro-1H-pyrazole] had an Emax of 46 fold and a 50% effective concentration (EC50) of 0.094 µM.

`CN(CCO)S(=O)(=O)c1ccc(-c2cccc(C3CC(C(F)(F)C(F)(F)F)=NN3c3ccc(F)cc3F)c2)cc1` (stereo not drawn) [Example 88, 1-(2,4-difluoro-phenyl)-5-{4′-[(2-hydroxy-ethyl)-methyl-sulfamoyl]-biphenyl-3-yl}-3-pentafluoroethyl-4,5-dihydro-1H-pyrazole] showed an Emax of 72 fold and an EC50 of 0.819 µM.

On to `CN(C)S(=O)(=O)N1CCN(c2ccc(C3CC(C(O)(C(F)(F)F)C(F)(F)F)=NN3c3ccccc3Cl)cc2)CC1` (stereo not drawn) [Example 316, 1-(2-chloro-phenyl)-5-[4-(4-dimethylsulfamoyl-piperazin-1-yl)-phenyl]-3-[di-(trifluoromethyl)-hydroxy-methyl]-4,5-dihydro-1H-pyrazole], for which the Emax came to 43 fold and the EC50 was found to be 0.706 µM.

The molecule `O=S(=O)(C1CC1)N1CCN(c2ccnc(C3CC(C(F)(F)C(F)(F)F)=NN3c3ccc(F)cc3F)c2)CC1` (stereo not drawn) [Example 184, 1-(2,4-difluoro-phenyl)-5-[4-(4-cyclopropanesulfonyl-piperazin-1-yl)-pyridin-2-yl]-3-pentafluoroethyl-4,5-dihydro-1H-pyrazole] displayed an Emax of 81 fold and an EC50 of 2.84 µM.

Regarding `CS(=O)(=O)N1CC=C(c2ccc(C3CC(C(O)(C(F)(F)F)C(F)(F)F)=NN3c3ccccc3Cl)s2)CC1` (stereo not drawn) [Example 418, 1-(2-chloro-phenyl)-5-[5-(1-methanesulfonyl-1,2,3,6-tetra hydropyridin-4-yl)-thiophen-2-yl]-3-[di-(trifluoromethyl)-hydroxy-methyl]-4,5-dihydro-1H-pyrazole], the Emax was determined as 106 fold and the EC50 stood at 0.373 µM.
